Results reported in PubChem BioAssay AID248 (DTP/NCI, 2004).
Where “and” joins values, the source holds several entries; their conditions need not be identical. Identical values can stand only once. Toxic doses and inconclusive results are not listed. Rule as the data show it: active = T/C of 150% or more; inactive = T/C below 125%.

System: L1210 leukemia ip in BDF1 mice, survival T/C
Assay: NCI In Vivo Anticancer Drug Screen. Data for tumor model L1210 Leukemia (intraperitoneal) in B6D2F1 (BDF1) mice
Settings: higher = longer survival
Procedure, shortened: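 Each compound was tested against a transplantable tumor grown in mice. The endpoint was survival, with treated animals benchmarked against vehicle controls as a simple ratio.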

[1] = endpoint: mean survival time, dose: 100.0 mg/kg/injection, schedule: Q01DX001 (ip), vehicle: carboxymethylcellulose (CMC)
[2] = endpoint: mean survival time, dose: 200.0 mg/kg/injection, schedule: Q01DX001 (ip), vehicle: carboxymethylcellulose (CMC)
[3] = endpoint: mean survival time, dose: 400.0 mg/kg/injection, schedule: Q01DX001 (ip), vehicle: carboxymethylcellulose (CMC)
[4] = endpoint: mean survival time, dose: 50.0 mg/kg/injection, schedule: Q01DX001 (ip), vehicle: carboxymethylcellulose (CMC)

Measured: T/C

Cc1c(N)nc([C@H](CC(N)=O)NC[C@H](N)C(N)=O)nc1C(=O)N[C@H](C(=O)N[C@H](C)[C@@H](O)[C@H](C)C(=O)N[C@H](C(=O)NCCc1nc(-c2nc(C(=O)NCCC[S+](C)C)cs2)cs1)[C@@H](C)O)C(OC1OC(CO)C(O)C(O)C1OC1OC(CO)C(O)C(OC(N)=O)C1O)c1cnc[nH]1 (stereo partly specified)
inactive: endpoint: mean survival time, dose: 0.35 mg/kg/injection, schedule: Q01DX009 (ip), vehicle: saline 99 % of control and 100 % of control | endpoint: mean survival time, dose: 0.7 mg/kg/injection, schedule: Q01DX009 (ip), vehicle: saline 100 % of control | endpoint: mean survival time, dose: 1.3 mg/kg/injection, schedule: Q01DX009 (ip), vehicle: saline 99 % of control and 107 % of control | endpoint: mean survival time, dose: 2.0 mg/kg/injection, schedule: Q01DX009 (ip), vehicle: saline 101 % of control | endpoint: mean survival time, dose: 2.0 mg/kg/injection, schedule: Q04DX002 (ip), vehicle: saline 97 % of control | endpoint: mean survival time, dose: 2.5 mg/kg/injection, schedule: Q01DX009 (ip), vehicle: saline 110 % of control and 119 % of control | endpoint: mean survival time, dose: 4.0 mg/kg/injection, schedule: Q01DX009 (ip), vehicle: saline 107 % of control and 109 % of control and 112 % of control | endpoint: mean survival time, dose: 4.0 mg/kg/injection, schedule: Q04DX002 (ip), vehicle: saline 103 % of control and 105 % of control | endpoint: mean survival time, dose: 5.0 mg/kg/injection, schedule: Q01DX009 (ip), vehicle: saline 94 % of control and 107 % of control | endpoint: mean survival time, dose: 5.8 mg/kg/injection, schedule: Q01DX009 (ip), vehicle: clinical formulation 93 % of control | endpoint: mean survival time, dose: 7.81 mg/kg/injection, schedule: Q01DX009 (ip), vehicle: saline 109 % of control | endpoint: mean survival time, dose: 8.0 mg/kg/injection, schedule: Q01DX009 (ip), vehicle: saline 104 % of control and 109 % of control and 110 % of control | endpoint: mean survival time, dose: 8.0 mg/kg/injection, schedule: Q04DX002 (ip), vehicle: saline 100 % of control and 108 % of control | endpoint: mean survival time, dose: 8.7 mg/kg/injection, schedule: Q01DX009 (ip), vehicle: clinical formulation 95 % of control | endpoint: mean survival time, dose: 10.0 mg/kg/injection, schedule: Q01DX009 (ip), vehicle: saline 106 % of control and 110 % of control | endpoint: mean survival time, dose: 13.0 mg/kg/injection, schedule: Q01DX009 (ip), vehicle: clinical formulation 92 % of control | endpoint: mean survival time, dose: 15.62 mg/kg/injection, schedule: Q01DX009 (ip), vehicle: saline 104 % of control | endpoint: mean survival time, dose: 16.0 mg/kg/injection, schedule: Q01DX009 (ip), vehicle: saline 93 % of control and 108 % of control and 114 % of control | endpoint: mean survival time, dose: 16.0 mg/kg/injection, schedule: Q04DX002 (ip), vehicle: saline 97 % of control and 103 % of control | endpoint: mean survival time, dose: 20.0 mg/kg/injection, schedule: Q01DX009 (ip), vehicle: clinical formulation 93 % of control | endpoint: mean survival time, dose: 30.0 mg/kg/injection, schedule: Q01DX009 (ip), vehicle: clinical formulation 87 % of control | endpoint: mean survival time, dose: 31.0 mg/kg/injection, schedule: Q04DX002 (ip), vehicle: saline 103 % of control and 106 % of control | endpoint: mean survival time, dose: 31.25 mg/kg/injection, schedule: Q01DX001 (ip), vehicle: saline 100 % of control | endpoint: mean survival time, dose: 31.25 mg/kg/injection, schedule: Q01DX009 (ip), vehicle: saline 116 % of control | endpoint: mean survival time, dose: 32.0 mg/kg/injection, schedule: Q01DX009 (ip), vehicle: saline 113 % of control and 91 % of control and 92 % of control | endpoint: mean survival time, dose: 62.0 mg/kg/injection, schedule: Q04DX002 (ip), vehicle: saline 93 % of control and 101 % of control | endpoint: mean survival time, dose: 62.5 mg/kg/injection, schedule: Q01DX001 (ip), vehicle: saline 122 % of control | endpoint: mean survival time, dose: 62.5 mg/kg/injection, schedule: Q01DX009 (ip), vehicle: saline 107 % of control | endpoint: mean survival time, dose: 125.0 mg/kg/injection, schedule: Q01DX001 (ip), vehicle: saline 106 % of control | endpoint: mean survival time, dose: 125.0 mg/kg/injection, schedule: Q01DX009 (ip), vehicle: saline 97 % of control | endpoint: mean survival time, dose: 250.0 mg/kg/injection, schedule: Q01DX001 (ip), vehicle: saline 106 % of control | endpoint: median survival time, dose: 3.0 mg/kg/injection, schedule: Q01DX009 (ip), vehicle: saline 99 % of control | endpoint: median survival time, dose: 4.0 mg/kg/injection, schedule: Q01DX009 (ip), vehicle: saline 100 % of control and 110 % of control | endpoint: median survival time, dose: 5.0 mg/kg/injection, schedule: Q01DX009 (ip), vehicle: saline 101 % of control | endpoint: median survival time, dose: 8.0 mg/kg/injection, schedule: Q01DX009 (ip), vehicle: saline 106 % of control and 120 % of control | endpoint: median survival time, dose: 8.4 mg/kg/injection, schedule: Q01DX009 (ip), vehicle: saline 98 % of control | endpoint: median survival time, dose: 14.0 mg/kg/injection, schedule: Q01DX009 (ip), vehicle: saline 96 % of control | endpoint: median survival time, dose: 16.0 mg/kg/injection, schedule: Q01DX009 (ip), vehicle: saline 106 % of control | endpoint: median survival time, dose: 23.0 mg/kg/injection, schedule: Q01DX009 (ip), vehicle: saline 96 % of control | endpoint: median survival time, dose: 32.0 mg/kg/injection, schedule: Q01DX009 (ip), vehicle: saline 100 % of control | endpoint: median survival time, dose: 39.0 mg/kg/injection, schedule: Q01DX009 (ip), vehicle: saline 88 % of control

Cc1nc2ccccc2cc1C#N
inactive: [1] 118 % of control | [2] 118 % of control | [3] 108 % of control

C/C=C(\C)C(=O)O
inactive: endpoint: mean survival time, dose: 222.0 mg/kg/injection, schedule: Q01DX Z (ip), vehicle: saline 90 % of control

NCC(O)c1cccc(O)c1 (stereo unspecified)
inactive: [4] 105 % of control | [1] 94 % of control | [2] 100 % of control | [3] 100 % of control

OCCN(CCO)c1nnc(-c2ccccc2)o1
inactive: endpoint: mean survival time, dose: 100.0 mg/kg/injection, schedule: Q01DX001 (ip), vehicle: saline 102 % of control | endpoint: mean survival time, dose: 200.0 mg/kg/injection, schedule: Q01DX001 (ip), vehicle: saline 94 % of control and 90 % of control | endpoint: mean survival time, dose: 400.0 mg/kg/injection, schedule: Q01DX001 (ip), vehicle: saline 101 % of control and 91 % of control

O=C(CNC(=O)c1ccccc1)N/N=C/c1c(O)ccc2ccccc12
inactive: endpoint: mean survival time, dose: 100.0 mg/kg/injection, schedule: Q01DX009 (ip), vehicle: saline with Tween-80 95 % of control | endpoint: mean survival time, dose: 200.0 mg/kg/injection, schedule: Q01DX009 (ip), vehicle: saline with Tween-80 95 % of control | endpoint: mean survival time, dose: 400.0 mg/kg/injection, schedule: Q01DX009 (ip), vehicle: saline with Tween-80 97 % of control

CC(=O)OCC1OC(Oc2ccccc2)C(OC(C)=O)C(OC(C)=O)C(OC(C)=O)C1OC(C)=O (stereo unspecified)
inactive: endpoint: mean survival time, dose: 50.0 mg/kg/injection, schedule: Q01DX009 (ip), vehicle: Klucel (hydroxypropylcellulose) (HPC) 104 % of control | endpoint: mean survival time, dose: 100.0 mg/kg/injection, schedule: Q01DX009 (ip), vehicle: Klucel (hydroxypropylcellulose) (HPC) 96 % of control | endpoint: mean survival time, dose: 200.0 mg/kg/injection, schedule: Q01DX009 (ip), vehicle: Klucel (hydroxypropylcellulose) (HPC) 96 % of control

CC1(C)CC(N=Cc2ccccc2O)CC(C)(C)N1O.CC1(C)CC(N=Cc2ccccc2O)CC(C)(C)N1O.[Zn]
inactive: endpoint: mean survival time, dose: 25.0 mg/kg/injection, schedule: Q04DX002 (ip), vehicle: Klucel (hydroxypropylcellulose) (HPC) 91 % of control | endpoint: mean survival time, dose: 50.0 mg/kg/injection, schedule: Q04DX002 (ip), vehicle: Klucel (hydroxypropylcellulose) (HPC) 91 % of control | endpoint: mean survival time, dose: 100.0 mg/kg/injection, schedule: Q04DX002 (ip), vehicle: Klucel (hydroxypropylcellulose) (HPC) 94 % of control

CC1(N2CCCC2)CCCCC1
inactive: [4] 94 % of control | [1] 99 % of control

C/C(=N/N(C)C)c1ccc(Cl)cc1
inactive: endpoint: mean survival time, dose: 12.5 mg/kg/injection, schedule: Q01DX009 (ip), vehicle: saline 105 % of control | endpoint: mean survival time, dose: 25.0 mg/kg/injection, schedule: Q01DX009 (ip), vehicle: saline 112 % of control | endpoint: mean survival time, dose: 50.0 mg/kg/injection, schedule: Q01DX009 (ip), vehicle: saline 111 % of control | endpoint: mean survival time, dose: 100.0 mg/kg/injection, schedule: Q04DX003 (ip), vehicle: saline 101 % of control

C=CS(=O)(=O)c1ccccc1Cl
inactive: endpoint: mean survival time, dose: 100.0 mg/kg/injection, schedule: Q04DX003 (ip), vehicle: Klucel (hydroxypropylcellulose) (HPC) 104 % of control | endpoint: mean survival time, dose: 200.0 mg/kg/injection, schedule: Q04DX003 (ip), vehicle: Klucel (hydroxypropylcellulose) (HPC) 98 % of control

CCOC(=O)/C=C(\C)N1CCCCC1
inactive: endpoint: mean survival time, dose: 100.0 mg/kg/injection, schedule: Q01DX009 (ip), vehicle: saline 104 % of control | endpoint: mean survival time, dose: 200.0 mg/kg/injection, schedule: Q01DX009 (ip), vehicle: saline 100 % of control
